ChEMBL document CHEMBL4613273, “Discovery of Aryl Formyl Piperidine Derivatives as Potent, Reversible, and Selective Monoacylglycerol Lipase Inhibitors” (J Med Chem, 2020)
pIC50: −log10 of the molar value.

Legend:
Monoglyceride lipase = target: T1, Monoglyceride lipase (Homo sapiens, UniProt Q99685); test: Inhibition of human recombinant MAGL pre-incubated for 5 mins before MAGL substrate addition and further incubated for 10 mins
T1 sequence (Q99685 whole entry): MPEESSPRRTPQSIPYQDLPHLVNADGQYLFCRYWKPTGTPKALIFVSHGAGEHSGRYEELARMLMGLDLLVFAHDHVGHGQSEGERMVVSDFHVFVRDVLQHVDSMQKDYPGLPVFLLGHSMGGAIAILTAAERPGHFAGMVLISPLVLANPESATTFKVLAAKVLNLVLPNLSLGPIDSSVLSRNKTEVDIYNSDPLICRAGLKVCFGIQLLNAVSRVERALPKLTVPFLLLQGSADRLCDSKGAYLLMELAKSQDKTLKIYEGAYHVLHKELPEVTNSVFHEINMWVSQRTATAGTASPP

Mus musculus [1] = test: Antidepressant activity in ICR mouse model of reserpine-induced depression assessed as immobility time at 5 mg/kg, ig by forced swim test (reference value: 136.84 +/- 46.69 secs); format: functional
Mus musculus [2] = test: Antidepressant activity in ICR mouse model of reserpine-induced depression assessed as immobility time at 5 mg/kg, ig by tail suspension test (reference value: 132.38 +/- 44.51 secs); format: functional
[3] = target: T2, Fatty-acid amide hydrolase 1 (Rattus norvegicus, UniProt P97612); test: Inhibition of rat FAAH
T2 sequence (P97612 whole entry): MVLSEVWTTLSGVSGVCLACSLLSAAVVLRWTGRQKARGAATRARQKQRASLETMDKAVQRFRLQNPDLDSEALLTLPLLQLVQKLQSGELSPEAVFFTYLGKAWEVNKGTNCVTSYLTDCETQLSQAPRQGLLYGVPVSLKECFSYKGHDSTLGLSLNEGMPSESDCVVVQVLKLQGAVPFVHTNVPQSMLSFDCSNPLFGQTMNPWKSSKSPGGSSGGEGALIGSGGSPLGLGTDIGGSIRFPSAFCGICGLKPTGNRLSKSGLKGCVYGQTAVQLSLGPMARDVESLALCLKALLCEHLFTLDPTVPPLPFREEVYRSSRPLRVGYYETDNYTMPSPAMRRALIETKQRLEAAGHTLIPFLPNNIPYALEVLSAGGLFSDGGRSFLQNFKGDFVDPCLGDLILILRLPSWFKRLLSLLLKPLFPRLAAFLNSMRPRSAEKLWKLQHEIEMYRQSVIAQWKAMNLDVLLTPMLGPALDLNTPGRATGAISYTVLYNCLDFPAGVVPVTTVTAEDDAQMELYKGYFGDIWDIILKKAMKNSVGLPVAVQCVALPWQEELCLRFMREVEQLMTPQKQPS

pIC50 (Monoglyceride lipase)	SMILES	other results
< 4.00	O=C(Nc1cccc(Cl)c1)C1CCN(C(=O)c2ccccc2O)CC1	
< 4.00	Cc1cc(C)cc(NC(=O)C2CCN(C(c3ccc(F)cc3)c3ccc(F)cc3)CC2)c1	
< 4.00	O=C(Nc1ccccc1)C1CCN(C(c2ccccc2)c2ccccc2)CC1	

Further lines, the compound ahead of its results:

SMILES	pIC50 (Monoglyceride lipase)	other results
COc1cccc(C(=O)N2CCC(C(=O)Nc3cccc(O)c3)CC2)c1	< 4.00	
O=C(Nc1cccc(Cl)c1)C1CCN(C(=O)c2ccc(Cl)cc2)CC1	< 4.00	
CNCCC(Oc1ccc(C(F)(F)F)cc1)c1ccccc1.Cl (stereo unspecified) [FLUOXETINE HYDROCHLORIDE]		Time (Mus musculus [1]): 92.64 s; Time (Mus musculus [2]): 92.19 s
CC(C)(C)c1ccc(CN2CCN(C(=S)Sc3ccc([N+](=O)[O-])cc3[N+](=O)[O-])CC2)cc1		pIC50 [3]: 5.76
O=C(Nc1ccccc1)C1CCN(C(c2ccc(F)cc2)c2ccc(F)cc2)CC1	< 4.00	
Cc1cc(C)cc(NC(=O)C2CCN(C(c3ccccc3)c3ccccc3)CC2)c1	< 4.00	
COc1cccc(NC(=O)C2CCN(C(c3ccccc3)c3ccccc3)CC2)c1	< 4.00	
